# Data reported in US20140080787A1, “Method for the Treatment of Neuropathies Associated with Charcot-Marie-Tooth 1A (CMT1A) Disease” (National Institutes of Health, US Dept of Health and Human …, priority 2012, published 2014).
# Legend:
# human PMP22 gene = assay: Orthogonal reporter assays (firefly luciferase or β-lactamase coupled to the intronic regulatory element of the human PMP22 gene); type: cell-based; conditions: targeted screening, firefly luciferase and β-lactamase reporters
# Excerpt: A cross-validating pair of orthogonal reporter assays, which employ either firefly luciferase or β-lactamase coupled to the intronic regulatory element of the human PMP22 gene, were used to measure CMT1A PMP22 overexpression as a means of identifying transcriptional inhibitors with therapeutic value toward CMT1A. […] A description of assays and methods used to identify compounds has been provided by S-W Jang and co-authors (Identification of drug modulators targeting gene-dosage disease. ACS Chem Biol., 2012, 7, 1205-1213).
# PMP22 [1] = assay: PMP22 expression in sciatic nerve of CMT1A rats, quantitative rtPCR; type: in vivo, rat; conditions: vehicle = 1.00, ± SEM
# Excerpt: Abundance of gene expression could be determined relative to an untreated sample for each gene using the comparative Ct method as described in the procedure published by K. J. Livak and T. D. Schmittgen (Analysis of relative gene expression data using real-time quantitative PCR and the 2^ΔΔCT method. Methods, 2001, 25, 402-408).
# Changes in the expression of peripheral and central nervous system gene makers (including myelin markers such as PMP22, P0, and Myelin Basic Protein) were followed after proteasome inhibitor administration, and a reduction of PMP22 expression was observed. Changes in PMP22 gene expression were correlated with measures of neurological function that are used to measure the CMT1A neuropathy. These measures of neurological function included measures of motor coordination, nerve conduction velocity, and histology of femoral motor and sensory nerves. Relevant measures of CMT1A function have been outlined by J. C. Noreel and co-authors (Behavioural profiling of a murine Charcot-Marie-Tooth disease type 1A model. Eur. J. Neurosci. 2001, 13, 1625-1634).
# Bortezomib was administered subcutaneously (s.c.) at a dose equivalent to 0.1 mg substance/kg of body weight, using an injection concentration of 2.5 mg of substance/ml. RNA was purified from sciatic nerve at 7 d post-injection. […] Errors indicate the standard error of the mean (SEM).
# Oprozomib (ONX-0912) was administered at the indicated doses by oral gavage and RNA was purified from sciatic nerve at 7 d. […] Errors indicate SEM. Vehicle was 10% EtOH, 10% Tween80, 80% 10 mM citrate buffer pH=3.5 (see; Zhou, H-J. et al., Design and Synthesis of an Orally Bioavailable and Selective Peptide Epoxyketone Proteasome Inhibitor (PR-047). J. Med. Chem., 2009, 52, 3028-3038).
# PMP22 [2] = assay: PMP22 expression in S16 Schwann cells, quantitative rtPCR; type: cell-based; conditions: for RQ (Relative Quantity) PMP22-P1 / RQ (Relative Quantity) PMP22-P2: normalized to beta-actin, untreated = 1.000; for PMP22 P1 relative level of expression / PMP22 P2 relative level of expression: 24 h, S16 Schwann cells, relative to untreated control, normalized to 18S rRNA, ± S.D.
# Experimental: To determine if proteasome inhibitors affect endogenous PMP22 expression, quantitative rtPCR was utilized to measure the abundance of PMP22 mRNA transcript in the S16 Schwann cells, which were plated in 6 well plates and treated with each compound at the indicated concentrations. After 24 h., the cells were harvested to purify RNA, 1 μg of which was converted into cDNA. Quantitative rtPCR was performed in either SYBR green-based reactions or Taqman-based customized 384-well micro fluidic arrays using a ViiA7 system or StepOne Plus (Applied Biosystems). Abundance of gene expression was first normalized to beta-actin (ActB, NM_031144.2) or 18 S rRNA, which served as an endogenous loading control across samples, and then determined relative to the untreated sample for each gene using the comparative Ct method described by K. J. Livak and T. D. Schmittgen (Analysis of relative gene expression data using real-time quantitative PCR and the 2^ΔΔCT method. Methods, 2001, 25, 402-408).
# S16 Schwann cells were treated with indicated proteasome inhibitors for 24 h. RNA was prepared and analyzed by quantitative rtPCR using promoter specific primers for PMP22 (labeled P1 and P2). Relative levels of expression are shown relative to untreated control cells. Values are normalized to 18S rRNA. Errors reflect the standard deviation (S.D.) of technical duplicates.
# RQ=Relative Quantity, normalized to beta-actin
# PMP22 [3] = assay: Effect on PMP22 expression in mice after a single s.c. injection; type: in vivo; conditions: 10 mg/kg, n = 4, vehicle printed 0.739 ± 0.07
# Excerpt: MLN9708. Anatomical areas of subcutaneous administration could include the right or left thigh, or abdomen. The same anatomical area can be used for repeated administration. However, injections are typically to be rotated between sites (see; Fledrich, R. M. et al., Murine therapeutic models for Charcot-Marie-Tooth (CMT) disease. British Medical Bulletin, 2012, 102, 89-113).
# [4] = 0.1 mg/kg s.c., sciatic nerve, 7 d post-injection, n = 9
# [5] = 10 mg/kg oral gavage, sciatic nerve at 7 d, n = 7
# [6] = 30 mg/kg oral gavage, sciatic nerve at 7 d, n = 7
smiles,measurement,setting,value
"CC(C)C[C@H](NC(=O)[C@H](Cc1ccccc1)NC(=O)c1cnccn1)B(O)O [Bortezomib, [(1R)-3-methyl-1-({(2S)-3-phenyl-2-[(pyrazin-2-ylcarbonyl)amino]propanoyl}amino)butyl]boronic acid]",Effect on CMT1A PMP22 overexpression in reporter assays,human PMP22 gene,selectively reducing CMT1A expression
same,PMP22 P1 relative level,PMP22 [1]; [4],0.675 ± 0.17
same,PMP22 P2 relative level,PMP22 [1]; [4],0.4 ± 0.07
same,Total PMP22 relative level,PMP22 [1]; [4],0.3 ± 0.05
same,RQ (Relative Quantity) PMP22-P1,PMP22 [2]; 10 nM,0.517
same,RQ (Relative Quantity) PMP22-P2,PMP22 [2]; 10 nM,0.809
same,RQ (Relative Quantity) PMP22-P1,PMP22 [2]; 100 nM,0.032
same,RQ (Relative Quantity) PMP22-P2,PMP22 [2]; 100 nM,0.153
same,RQ (Relative Quantity) PMP22-P1,PMP22 [2]; 1 μM,0.041
same,RQ (Relative Quantity) PMP22-P2,PMP22 [2]; 1 μM,0.232
same,RQ (Relative Quantity) PMP22-P1,PMP22 [2]; 10 μM,0.077
same,RQ (Relative Quantity) PMP22-P2,PMP22 [2]; 10 μM,0.285
"CC(C)C[C@H](NC(=O)[C@H](CCc1ccccc1)NC(=O)CN1CCOCC1)C(=O)N[C@@H](Cc1ccccc1)C(=O)N[C@@H](CC(C)C)C(=O)[C@@]1(C)CO1 [Carfilzomib, (S)-4-nethyl-N-((S)-1-(((S)-4-methyl-1-((R)-2-methyloxiran-2-yl)-1-oxopentan-2-yl)amino)-1-oxo-3-phenylpropan-2-yl)-2-((S)-2-(2-morpholinoacetamido)-4-phenylbutanamido)pentanamide]",PMP22 P1 relative level of expression,PMP22 [2]; 1 nM,0.003 ± 0.0004
same,PMP22 P2 relative level of expression,PMP22 [2]; 1 nM,0.012 ± 0.004
same,PMP22 P1 relative level of expression,PMP22 [2]; 2.5 nM,0.006 ± 0.0005
same,PMP22 P2 relative level of expression,PMP22 [2]; 2.5 nM,0.027 ± 0.0037
same,PMP22 P1 relative level of expression,PMP22 [2]; 5 nM,0.006 ± 0.0019
same,PMP22 P2 relative level of expression,PMP22 [2]; 5 nM,0.037 ± 0.00026
same,PMP22 P1 relative level of expression,PMP22 [2]; 10 nM,0.014 ± 0.0007
same,PMP22 P2 relative level of expression,PMP22 [2]; 10 nM,0.046 ± 0.0022
same,PMP22 P1 relative level of expression,PMP22 [2]; 100 nM,0.009 ± 0.0055
same,PMP22 P2 relative level of expression,PMP22 [2]; 100 nM,0.027 ± 0.017
same,PMP22 P1 relative level of expression,PMP22 [2]; 1 μM,0.008 ± 0.0024
same,PMP22 P2 relative level of expression,PMP22 [2]; 1 μM,0.036 ± 0.0049
"CC(C)C[C@H](NC(=O)CNC(=O)c1cc(Cl)ccc1Cl)B(O)O [MLN2238, (R)-1-(2-(2,5-dichlorobenzamido)acetamido)-3-methylbutylboronic acid]",PMP22 P1 relative level of expression,PMP22 [2]; 25 nM,1.177 ± 0.42
same,PMP22 P2 relative level of expression,PMP22 [2]; 25 nM,0.837 ± 0.041
same,PMP22 P1 relative level of expression,PMP22 [2]; 50 nM,0.826 ± 0.225
same,PMP22 P2 relative level of expression,PMP22 [2]; 50 nM,0.865 ± 0.141
same,PMP22 P1 relative level of expression,PMP22 [2]; 100 nM,0.005 ± 0.0005
same,PMP22 P2 relative level of expression,PMP22 [2]; 100 nM,0.020 ± 0.005
same,PMP22 P1 relative level of expression,PMP22 [2]; 1 μM,0.003 ± 0.0007
same,PMP22 P2 relative level of expression,PMP22 [2]; 1 μM,0.022 ± 0.0026
same,PMP22 P1 relative level of expression,PMP22 [2]; 10 μM,0.007 ± 0.00003
same,PMP22 P2 relative level of expression,PMP22 [2]; 10 μM,0.018 ± 0.0123
"CC(C)C[C@H](NC(=O)CNC(=O)c1cc(Cl)ccc1Cl)B1OC(=O)CC(CC(=O)O)(C(=O)O)O1 (stereo partly drawn) [MLN9708, 4-(carboxymethyl)-2-((R)-1-(2-(2,5-dichlorobenzamido)acetamido)-3-methylbutyl)-6-oxo-1,3,2-dioxaborinane-4-carboxylic acid]",Total PMP22 relative level,PMP22 [3],1.00 ± 0.09
"COC[C@H](NC(=O)c1cnc(C)s1)C(=O)N[C@@H](COC)C(=O)N[C@@H](Cc1ccccc1)C(=O)[C@@]1(C)CO1 [Oprozomib, O-methyl-N-[(2-methyl-5-thiazolyl)carbonyl]-L-seryl-O-methyl-N-[(1S)-2-[(2R)-2-methyl-2-oxiranyl]-2-oxo-1-(phenylmethyl)ethyl]-L-serinamide]",PMP22 P1 relative level,PMP22 [1]; [5],0.46 ± 0.15
same,PMP22 P2 relative level,PMP22 [1]; [5],3.1 ± 0.9
same,Total PMP22 relative level,PMP22 [1]; [5],0.62 ± 0.17
same,PMP22 P1 relative level,PMP22 [1]; [6],0.46 ± 0.1
same,PMP22 P2 relative level,PMP22 [1]; [6],1.87 ± 0.77
same,Total PMP22 relative level,PMP22 [1]; [6],0.61 ± 0.07
